Data taken from patent publication US8314058B2, “Uptake of macromolecules” (Axcess Limited, priority 2003, dated 2012).

Test system: juvenile pigs
Experiment: In vivo efficacy of tablets containing chenodeoxycholate/propyl gallate/calcitonin mixture in juvenile pigs (blood calcium)
Conditions: 400 iu s.c., six hour period
Procedure: Blood calcium levels are measured at intervals over a six hour period and mean change in AUC of plasma calculated is calculated in h·mmol/l.

salmon calcitonin
AUC (mean change in AUC of plasma calcium): -1.79 mmol·h/L
